Values of other authors as cited in patent US20180289421A1, “SYSTEMS AND METHODS FOR TREATING NAIL FUNGUS” (Terimber Corporation, priority 2017, published 2018).

What was measured:
[1] = systemic antifungal therapy
onychomycosis = details: oral, 12-week course

Row | SMILES | cardiac toxicity [1] | maximal clinical response rate (onychomycosis) | mycologic cure rate (onychomycosis) | liver toxicity [1]
1 | CCC(C)n1ncn(-c2ccc(N3CCN(c4ccc(OCC5COC(Cn6cncn6)(c6ccc(Cl)cc6Cl)O5)cc4)CC3)cc2)c1=O (stereo not shown) [Itraconazole] | may induce cardiac toxicity | – | – | –
2 | CN(C/C=C/C#CC(C)(C)C)Cc1cccc2ccccc12 [terbinafine, [(2E)-6,6-dimethylhept-2-en-4-yn-1-yl](methyl)(naphthalen-1-ylmethyl)amine] | – | 60%-70% | 71%-82% | can elevate liver enzymes and has progressed to fulminant liver failure
